Common to all, as to details: mouse, in vivo
Data set [1] is described as follows: Compound was tested for its toxicity after oral administration to mice in experiment 1.
A short description of data set [2]: Compound was tested for its toxicity after intravenous administration in mice.
Data set [3] is described as follows: Compound was tested for its toxicity after oral administration to mice in experiment 2.
The nature of data set [4]: Compound was tested for its toxicity after oral administration in mice.
Data set [5] is described as follows: Compound was tested for its toxicity after intravenous administration to mice in experiment 1.
Data set [6] can be described thus: Compound was tested for its toxicity after intravenous administration to mice in experiment 2.
Data set [7] is described as follows: The activity was measured in mice after oral administration of the compound. The data set is classed as ADME.
Data set [8] in a line: Compound was tested for its toxicity after intravenous administration to mice.

Molecules are shown by their SMILES. A value given as a limit tells only on which side of the number the result lay.

LD50 data for 29 compounds are collected here from ChEMBL document CHEMBL1129855, “Molecular connectivity to find -blockers with low toxicity” (Bioorg Med Chem Lett, 1997).

For `O=C(O)C1CCc2cc(C3CCCCC3)c(Cl)cc21` (stereo unspecified), the 50% lethal dose (LD50) in data set [1] was found to be 41 mg/kg; in data set [2], 34 mg/kg; in data set [3] it was 252 mg/kg.

As to `CCCCCC(O)C1C(=O)OC(C)C(O)/C=C/C=C/C=C/C=C/C=C(\C)C(O)CC(O)CC(O)CC(O)CC(O)CC(O)CC1O` (stereo unspecified), the values for the LD50 in data set [4] and in data set [2] were 18 mg/kg and 5 mg/kg, respectively.

As to `CC(C)(C)NCC(O)COc1cccc2c1CCCC2=O` (single isomer, unassigned) [LEVOBUNOLOL], the median lethal dose (LD50) stood at 700 mg/kg in data set [1], 25 mg/kg in data set [5], 37.7 mg/kg in data set [6] and 798 mg/kg in data set [3].

Turning to `CCCC(=O)Nc1ccc(OCC(O)CNC(C)C)c(C(C)=O)c1` (stereo unspecified) [ACEBUTOLOL], the figures for the LD50 in data set [5] and in data set [6] were 76 mg/kg and 82.2 mg/kg, respectively.

Take `C=CCc1ccccc1OCC(O)CNC(C)C` (stereo unspecified) [ALPRENOLOL]: the 50% lethal dose (LD50) is 278 mg/kg in data set [1] and 415 mg/kg in data set [3].

For the compound `CC(C)(C)NCC(O)CSc1nc(-c2ccc(C(N)=O)s2)cs1` (stereo unspecified) [AROTINOLOL], the LD50 in data set [6] is 57.8 mg/kg.

For `CC(=O)c1cc2cccc(OCC(O)CNC(C)C)c2o1` (stereo unspecified) [BEFUNOLOL], the 50% lethal dose (LD50) was determined as 102 mg/kg in data set [5] and 75.1 mg/kg in data set [6].

For the compound `CC1=C(/C=C/C(C)=C/C=C/C(C)=C/C=C/C=C(C)/C=C/C=C(C)/C=C/C2=C(C)CCCC2(C)C)C(C)(C)CCC1` [BETA CAROTENE], the LD50 in data set [4] is 26 mg/kg; in data set [7], 6750 mg/kg.

Turning to `CC(C)NCC(O)COc1ccc(CCOCC2CC2)cc1` (stereo unspecified) [BETAXOLOL], the 50% lethal dose (LD50) is 944 mg/kg in data set [1], 37 mg/kg in data set [5], 38 mg/kg in data set [6] and 625 mg/kg in data set [3].

As for `Cc1cc2c(OCC(CNC(C)(C)C)OC(=O)c3ccccc3)cccc2[nH]1` (stereo unspecified) [BOPINDOLOL], the results for the median lethal dose (LD50) in data set [5] and in data set [6] were 17 mg/kg and 15.9 mg/kg, respectively.

For the compound `Cc1ccc(OCC(O)CNC(C)(C)C)c2oc(=O)ccc12` (stereo unspecified) [BUCUMOLOL], the LD50 in data set [1] was found to be 676 mg/kg; in data set [5], 33.1 mg/kg; in data set [6], 46.8 mg/kg; in data set [3] it was 828 mg/kg.

As to `CC(C)(C)NCC(O)COc1ccccc1OCC1CCCO1` (stereo unspecified) [BUFETOLOL], the median lethal dose (LD50) amounted to 409 mg/kg in data set [1] and 238 mg/kg in data set [3].

Turning to `CCc1cccc2cc(C(O)CNC(C)(C)C)oc12` (stereo unspecified) [BUFURALOL], the LD50 in data set [1] turned out to be 117 mg/kg; in data set [5], 29.7 mg/kg; in data set [6], 25.9 mg/kg; in data set [3] it was 273 mg/kg.

Turning to `CC(C)(C)NCC(O)COc1ccccc1C#N` (stereo unspecified) [BUNITROLOL], the median lethal dose (LD50) in data set [1] was determined as 1350 mg/kg; in data set [3], 998 mg/kg.

Turning to `CCC(C)NCC(O)c1ccc2c(c1)CCCC2` (stereo unspecified) [BUTIDRINE], the LD50 in data set [1] was 235 mg/kg; in data set [5], 20.2 mg/kg; in data set [6], 24.6 mg/kg; in data set [3] it was 212 mg/kg.

With `CC(C)(C)NCC(O)COc1cccc2c1CCC(=O)N2` (stereo unspecified) [CARTEOLOL], the LD50 in data set [1] amounted to 810 mg/kg; in data set [6], 39.4 mg/kg; in data set [3] it was 656 mg/kg.

Regarding `CCN(CC)C(=O)Nc1ccc(OCC(O)CNC(C)(C)C)c(C(C)=O)c1` (stereo unspecified) [CELIPROLOL], the LD50 in data set [1] was 1830 mg/kg; in data set [5], 56.2 mg/kg; in data set [6] it was 42.8 mg/kg; in data set [3] it was 1770 mg/kg.

As to `CC(C)NCC(O)COc1cccc2c1C=CC2` (stereo unspecified) [INDENOLOL], the figures for the LD50 in data set [5] and in data set [6] were 26 mg/kg and 32.4 mg/kg, respectively.

With `CC(CCc1ccccc1)NCC(O)c1ccc(O)c(C(N)=O)c1` (stereo unspecified) [LABETALOL], the median lethal dose (LD50) is 1450 mg/kg in data set [1], 47 mg/kg in data set [5], 51.1 mg/kg in data set [6] and 1370 mg/kg in data set [3].

Regarding `CC(=O)Oc1c(C)cc(OCC(O)CNC(C)C)c(C)c1C` (stereo unspecified) [METIPRANOLOL], the 50% lethal dose (LD50) in data set [5] was 31 mg/kg; in data set [6], 38.8 mg/kg.

As to `COCCc1ccc(OCC(O)CNC(C)C)cc1` (stereo unspecified) [METOPROLOL], the median lethal dose (LD50) in data set [1] came out at 2090 mg/kg; in data set [5], 118 mg/kg; in data set [6], 292 mg/kg; in data set [3] it was 3060 mg/kg.

`CC(C)(C)NCC(O)COc1cccc2c1C[C@H](O)[C@H](O)C2` (stereo partly specified) [NADOLOL]: the values for the LD50 in data set [1] and in data set [3] were 4500 mg/kg and 2710 mg/kg, respectively.

In the case of `N/C(CC(O)COc1cccc2ccccc12)=N/O` (stereo unspecified) [NADOXOLOL], the LD50 in data set [1] came out at 1000 mg/kg; in data set [5], 180 mg/kg; in data set [6], 119 mg/kg; in data set [3] it was 710 mg/kg.

Turning to `CC(C)(Sc1cc(C(C)(C)C)c(O)c(C(C)(C)C)c1)Sc1cc(C(C)(C)C)c(O)c(C(C)(C)C)c1` [PROBUCOL], the LD50 in data set [8] is 25 mg/kg; in data set [1], more than 5000 mg/kg.

Consider `CC(C)NCC(O)c1ccc2ccccc2c1` (stereo unspecified) [PRONETALOL], for which the LD50 worked out at 512 mg/kg in data set [1], 46 mg/kg in data set [5], 38 mg/kg in data set [6] and 486 mg/kg in data set [3].

Take `CC(C)NCC(O)c1ccc(NS(C)(=O)=O)cc1` (stereo unspecified) [SOTALOL]: the LD50 in data set [1] was 2600 mg/kg; in data set [3], 2630 mg/kg.

Regarding `CC(C)(C)NCC(O)COc1ccc(NC(=O)NC2CCCCC2)cc1` (stereo unspecified) [TALINOLOL], the LD50 in data set [1] worked out at 593 mg/kg; in data set [5], 25 mg/kg; in data set [6], 25.8 mg/kg; in data set [3], 1050 mg/kg.

Turning to `CC(C)(C)NCC(O)COc1cccc2c1SCCC2` (stereo unspecified) [TERTATOLOL], the LD50 in data set [5] was 37 mg/kg; in data set [6] it was 34.1 mg/kg.

As to `CC(C)(C)NC[C@H](O)COc1nsnc1N1CCOCC1` [TIMOLOL], the LD50 in data set [1] is 1190 mg/kg; in data set [3], 1460 mg/kg.

What is called LD50 is the dose expected to kill half of the subjects tested. High values mean lower toxicity, low ones greater toxicity.
